Activity calls are given as the source filed them. The rule behind the calls is not given here.
Tests used:
Type in all cases: functional, organism-based
[1] = system: Cavia porcellus; assay: Postcoital antifertility activity was determined in guinea pigs after injected for 3 days subcutaneously (12-14 postmating days); IA- Inactive
[2] = system: Cavia porcellus; assay: Luteolytic activity was determined in guinea pigs administered intraperitoneally as a single dose on day 22 postmating days; IA- Inactive
[3] = system: Cavia porcellus; assay: Postcoital antifertility was determined in guinea pigs administered intraperitoneally as a single dose on day 22 postmating days; IA- Inactive
[4] = system: Cavia porcellus; assay: Luteolytic activity was determined in guinea pigs after injected for 3 days subcutaneously (22-24 postmating days); IA- Inactive
[5] = system: Cavia porcellus; assay: Luteolytic activity was determined in guinea pigs after injected for 3 days subcutaneously (12-14 postmating days); IA- Inactive
[6] = system: Cavia porcellus; assay: Postcoital antifertility was determined in guinea pigs after injected for 3 days subcutaneously (22-24 postmating days); IA- Inactive
[7] = system: Cavia porcellus; assay: Pregnancy was determined in guinea pigs after sc administration of 40 or 50 mg per guinea pig on 12-14 postmating days (n=5); NA- No apparent effect
[8] = system: Cavia porcellus; assay: Pregnancy was determined in guinea pigs after sc administration of 50 or 75 mg per guinea pig on 22-24 postmating days (n=5); NA- No apparent effect
[9] = system: Cavia porcellus; assay: Effect in guinea pigs at a dose of 60 mg/kg of body weight; A- Partially active; design: dose 60 mg/kg
[10] = system: Cavia porcellus; assay: Effect in guinea pigs at a dose of 80 mg/kg of body weight; A- Partially active; design: dose 80 mg/kg
[11] = system: Cavia porcellus; assay: Effect on the resorption of implantation sites in guinea pigs at 100 mg/kg administered intraperitoneally; E- Fully effective; design: dose 100 mg/kg
[12] = species on record: Cavia porcellus; assay: Pregnancy was determined in guinea pigs after a single dose of 24 mg per guinea pig (n=1 or 2); NE- No effect
[13] = species on record: Cavia porcellus; assay: Pregnancy was determined in guinea pigs after a single dose of 40 mg per guinea pig (n=1 or 2); NE- No effect

`CC(C)=CCC(=O)C(C)CCCC1(C)COC(CC(=O)O)CO1` (centres undefined) was tested, and the Activity [1] was “inactive”, the Activity [2] was “inactive” and the Activity [3] was “inactive”. The Activity [4] was “inactive”, the Activity [5] was “inactive” and the Activity [6] was “inactive”.

`COC(=O)C(C)CCC[C@]1(C)COC(CO)CO1` (some centres undefined) was tested, and the Activity [1] was “inactive”, the Activity [2] was “inactive” and the Activity [7] was “inactive”. The Activity [3] was “inactive”, the Activity [8] was “inactive” and the Activity [4] was “inactive”. For the same compound, the Activity [5] was “inactive” and the Activity [6] was “inactive”.

For `CC(C)=CCC(=O)C(C)CCCC1(C)OC/C(=C/CO)CCC1O` (centres undefined), the Activity [9] was “Weak activity”, the Activity [10] was “Weak activity” and the Activity [11] was “Fully effective”.

With `CC(C)=CCC(=O)C(C)CCCC1(C)COC(CO)CO1` (centres undefined) the Activity [1] was “inactive”, the Activity [2] was “inactive” and the Activity [3] was “inactive”. For the same compound, the Activity [4] was “inactive”, the Activity [5] was “inactive” and the Activity [6] was “inactive”.

In the case of `COC(=O)C(C)CCC[C@@]1(C)COC(CO)CO1` (some centres undefined), the Activity [1] is reported as “inactive”, the Activity [2] is reported as “inactive” and the Activity [7] is reported as “inactive”. For the same compound, the Activity [3] was “inactive”, the Activity [8] was “inactive” and the Activity [4] was “inactive”. The Activity [5] was “inactive” and the Activity [6] was “inactive”.

In the case of `CC(C)/C=C/C(=O)C(C)CCCC1(C)COC(CC(=O)O)CO1` (centres undefined), the Activity [12] is reported as “inactive”, the Activity [1] is reported as “inactive” and the Activity [2] is reported as “inactive”. For the same compound, the Activity [3] was “inactive”, the Activity [13] was “inactive” and the Activity [4] was “inactive”. For the same compound, the Activity [5] was “inactive” and the Activity [6] was “inactive”.

From ChEMBL document CHEMBL1122294, “Synthesis and biological activity of zoapatanol analogues” (J Med Chem, 1983)
